Data as given in publication PMC4911292 (Clinical cancer research : an official journal of the …, 2016).

Columns and labels:
[1] = tested on: pretreated metastatic breast cancer; conditions: single agent; cited from earlier work
[2] = design: species or system human; conditions: in vivo
[3] = Veliparib pharmacokinetics in plasma and urine; assay type: in vivo, human
[4] = tested on: germline BRCA mutation-associated cancer; conditions: monotherapy throughout a 28-day cycle; cited from earlier work
PARP = conditions: at lower doses; cited from earlier work
CYP enzymes = conditions: cited from earlier work
[5] = tested on: patients with recurrent and/or metastatic TNBC and/or BRCA mutation-associated breast cancer
[6] = tested on: advanced triple-negative breast cancer and/or BRCA mutation-associated breast cancer; experiment: Preliminary efficacy; assay type: in vivo, human; conditions: veliparib with cisplatin and vinorelbine
P-glycoprotein (P-gp) = conditions: cited from earlier work
[7] = cited from earlier work
[8] = N=50, veliparib with cisplatin and vinorelbine, any time during study
[9] = veliparib monotherapy, 23 patients
[10] = veliparib with cisplatin and vinorelbine, N=50
[11] = germline BRCA1 and BRCA2 wild-type, n=26
[12] = germline BRCA1 or BRCA2 mutation positive, n=14

Structure (SMILES): N.N.[Cl][Pt][Cl] [cisplatin]
- Response rate [1]: less than 10%
- Median C4/C1 ratio for ultrafilterable platinum AUC0-24 [2]: 0.98
- Median C4/C1 ratio for ultrafilterable platinum Cmax [2]: 0.99

Structure (SMILES): C[C@]1(c2nc3c(C(N)=O)cccc3[nH]2)CCCN1 [veliparib]
- Proportion of the first dose excreted in the urine over 12 hours (median) ([3]; cycle 1, N=20): 61.7%
- Proportion of the first dose excreted in the urine over 12 hours (median) ([3]; cycle 4, N=20): 66.7%
- Median C4/C1 ratio of Cmax ([3]; cycle 4 day 1 vs cycle 1 day 0, N=32, range 0.36-2.00): 0.85
- Median C4/C1 ratio of AUC0-6 ([3]; cycle 4 day 1 vs cycle 1 day 0, N=32, range 0.44-1.64): 0.82
- Current RP2D as monotherapy [4]: 400 mg BID
- PARP inhibition by PAR assay (PARP): 90%
- Inhibition or induction of major CYP enzymes (CYP enzymes): does not appear to inhibit or induce the activity of major CYP enzymes
- Share of oral clearance accounted for by CYP2D6 (CYP enzymes): ~ 18%
- Share of oral clearance accounted for by additional liver metabolism (CYP enzymes): 10%
- Dose limiting toxicity ([5]; 40 mg dose level, with cisplatin and vinorelbine, one patient, bone marrow involvement of breast cancer): grade 4 thrombocytopenia
- Anemia, All grades [5, 8]: 32 (64%) N (%)
- Anorexia, All grades [5, 8]: 17 (34%) N (%)
- Dehydration, All grades [5, 8]: 17 (34%) N (%)
- Dyspepsia, All grades [5, 8]: 11 (22%) N (%)
- Fatigue, All grades [5, 8]: 40 (80%) N (%)
- Hypokalemia, All grades [5, 8]: 13 (26%) N (%)
- Nausea, All grades [5, 8]: 43 (86%) N (%)
- Neutrophil count decreased, All grades [5, 8]: 31 (62%) N (%)
- Peripheral sensory neuropathy, All grades [5, 8]: 21 (42%) N (%)
- Platelet count decreased, All grades [5, 8]: 33 (66%) N (%)
- Tinnitus, All grades [5, 8]: 26 (52%) N (%)
- Vomiting, All grades [5, 8]: 21 (42%) N (%)
- Recommended phase II dose (RP2D) ([5]; in combination with cisplatin and vinorelbine): 300 mg BID
- Patients reporting AEs on monotherapy ([5]; veliparib monotherapy): Six of 23
- Dyspepsia, any grade [5, 9]: 17%
- Nausea, any grade [5, 9]: 17%
- Vomiting, any grade [5, 9]: 17%
- Grade 3/4 anemia [5, 10]: 30%
- Grade 3/4 neutropenia [5, 10]: 36%
- Grade 3/4 thrombocytopenia [5, 10]: 12%
- Best overall response: complete response ([6]; 48 patients): 4%
- Progressive disease as best response or not assessed due to disease or toxicity ([6]; 48 patients): 21%
- Stable disease as best response ([6]; 48 patients): 44%
- Overall response rate (CR+PR, confirmed) ([6]; 48 patients, 95% CI 23%-50%): 35%
- Response (CR+PR) ([6]; BRCA mutation present): 57%
- Median progression-free survival ([6]; all 50 patients, 95% CI 4.1-6.7): 5.5 months
- Median overall survival ([6]; all patients, 95% CI 8.1-20.7): 9.6 months
- Best overall response: Complete response (CR) [6, 11]: 1 (4%) n(%)
- Best overall response: Partial response (PR) [6, 11]: 7 (27%) n(%)
- Best overall response: Progressive disease (PD) [6, 11]: 6 (23%) n(%)
- Best overall response: Complete response (CR) [6, 12]: 1 (7%) n(%)
- Best overall response: Partial response (PR) [6, 12]: 7 (50%) n(%)
- Best overall response: Progressive disease (PD) [6, 12]: 1 (7%) n(%)
- Clinical benefit (PFS6) rate [6, 12]: 10 (71%) n(%)
- Median OS ([6]; germline BRCA mutation): 22.6 months
- Median PFS ([6]; germline BRCA mutation): 9.2 months
- 6-month progression-free survival (PFS6) ([6]; germline BRCA mutation absent): 30%
- 6-month progression-free survival (PFS6) ([6]; germline BRCA mutation present): 71%
- Median PFS ([6]; germline BRCA wild-type): 4.2 months
- Best overall response: Complete response (CR) ([6]; total, n=48): 2 (4%) n(%)
- Best overall response: Partial response (PR) ([6]; total, n=48): 15 (31%) n(%)
- Best overall response: Progressive disease (PD) ([6]; total, n=48): 10 (21%) n(%)
- Best overall response: Partial response (PR) ([6]; unknown mutation status, n=8): 1(12%) n(%)
- Best overall response: Progressive disease (PD) ([6]; unknown mutation status, n=8): 3 (38%) n(%)
- Clinical benefit (PFS6) rate ([6]; unknown mutation status, n=8): 2 (25%) n(%)
- Median OS ([6]; unknown mutational status): 6.2 months
- Median PFS ([6]; unknown mutational status): 4.0 months
- Inhibition or induction of P-gp (P-glycoprotein (P-gp)): does not appear to inhibit or induce P-gp
- P-gp substrate status (P-glycoprotein (P-gp)): weak P-glycoprotein (P-gp) substrate

Structure (SMILES): CCC1=C[C@@H]2CN(C1)Cc1c([nH]c3ccccc13)[C@@](C(=O)OC)(c1cc3c(cc1OC)N(C)[C@H]1[C@@](O)(C(=O)OC)[C@H](OC(C)=O)[C@]4(CC)C=CCN5CC[C@]31[C@@H]54)C2 [vinorelbine]
- Renal excretion, share of the administered dose [7]: approximately 10%
